Data from patent US20250235460A1, “COMBINATION THERAPY USING GLUCOSE-DEPENDENT INSULINOTROPIC POLYPEPTIDE RECEPTOR ANTAGONIST COMPOUNDS AND GLP-1 RECEPTOR AGONIST COMPOUNDS” (Pfizer Inc., priority 2024, published 2025).
Like-named read-outs stand apart in the source and are kept apart here.

Biological target: human GLP-1R (Homo sapiens, UniProt P43220, G168S)
Test: CHO GLP-1R Clone H6 cAMP HTRF agonist assay (Assay 1, high receptor density)
Format: cell-based
Conditions: for EC50: CHO GLP-1R clone H6, cAMP HTRF, geometric mean; for Emax: arithmetic mean
From the text: In Table 5 and Table 6, assay data are presented to two (2) significant figures as the geometric mean (EC50s) and arithmetic mean (Emax) based on the number of replicates listed (Number). A blank cell means there was no data for that Example or the Emax was not calculated.

[1] = CHO GLP-1R clone H6, relative to saturating GLP-1 (1 μM), read-out: Assay 1 Emax (%)

Sequence of human GLP-1R (P43220 24-463 G168S): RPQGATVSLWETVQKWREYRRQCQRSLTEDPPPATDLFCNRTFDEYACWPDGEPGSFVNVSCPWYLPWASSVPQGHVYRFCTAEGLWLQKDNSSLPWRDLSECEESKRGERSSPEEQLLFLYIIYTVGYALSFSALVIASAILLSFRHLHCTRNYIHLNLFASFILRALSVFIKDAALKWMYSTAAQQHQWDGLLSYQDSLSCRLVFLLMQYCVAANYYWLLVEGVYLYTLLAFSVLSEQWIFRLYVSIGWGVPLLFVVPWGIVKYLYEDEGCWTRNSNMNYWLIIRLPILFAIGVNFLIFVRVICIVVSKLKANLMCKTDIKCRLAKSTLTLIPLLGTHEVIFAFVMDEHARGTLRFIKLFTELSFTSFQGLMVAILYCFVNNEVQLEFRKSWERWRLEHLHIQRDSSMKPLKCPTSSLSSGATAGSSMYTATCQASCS

| Compound | EC50 | Emax [1] | Emax (relative to saturating full agonist GLP-1 (1 μM), read-out: Assay 1 Emax) |
| --- | --- | --- | --- |
| CO[C@@H]1CCC[C@H]1n1c(CN2CCC(c3cccc(OCc4ccc(Cl)cc4F)n3)CC2)nc2ccc(C(=O)O)cc21 (stereo in doubt) [Compound 194B, 2-[(4-{6-[(4-chloro-2-fluorobenzyl)oxy]pyridin-2-yl}piperidin-1-yl)methyl]-1-[(1R,2R)-2-methoxycyclopentyl]-1H-benzimidazole-6-carboxylic acid] | 75 nM | 69% |  |
| CN1CC[C@@H]1Cn1c(CN2CCC(c3cccc(OCc4ccc(Cl)cc4F)n3)CC2)nc2ccc(C(=O)O)cc21 (stereo in doubt) [Compound 275B, 2-[(4-{6-[(4-chloro-2-fluorobenzyl)oxy]pyridin-2-yl}piperidin-1-yl)methyl]-1-[(1-methylazetidin-2-yl)methyl]-1H-benzimidazole-6-carboxylic acid] | > 20000 nM |  |  |
| COCCn1c(CN2CCC(c3cccc4c3OC(C)(c3ccc(C#N)cn3)O4)CC2)nc2ccc(C(=O)O)cc21 (stereo not drawn) [Compound 98B, ammonium 2-({4-[2-(5-cyanopyridin-2-yl)-2-methyl-1,3-benzodioxol-4-yl]piperidin-1-yl}methyl)-1-(2-methoxyethyl)-1H-benzimidazole-6-carboxylate, ENT-X2] |  |  | 89% |
| N#Cc1ccc(COc2cccc(C3CCN(Cc4nc5ccc(C(=O)O)cc5n4CC4CCO4)CC3)n2)c(F)c1 (stereo not shown) [Compound 109B, 2-[(4-{6-[(4-cyano-2-fluorobenzyl)oxy]pyridin-2-yl}piperidin-1-yl)methyl]-1-[oxetan-2-ylmethyl]-1H-benzimidazole-6-carboxylic acid] |  | 83% |  |
| O=C(O)c1ccc2nc(CN3CCC(c4cccc(OCc5ccc(F)cc5F)n4)CC3)n(C[C@@H]3CCO3)c2n1 [Compound 118B, 2-[(4-{6-[(2,4-difluorobenzyl)oxy]pyridin-2-yl}piperidin-1-yl)methyl]-3-[(2S)-oxetan-2-ylmethyl]-3H-imidazo[4,5-b] pyridine-5-carboxylic acid] | 750 nM | 76% |  |
| O=C(O)c1ccc2nc(CN3CCN(c4cccc(OCc5ccc(Cl)cc5F)n4)CC3)n(C[C@@H]3CCO3)c2c1 [Compound 119B, 2-[(4-{6-[(4-chloro-2-fluorobenzyl)oxy]pyridin-2-yl}piperazin-1-yl)methyl]-1-[(2S)-oxetan-2-ylmethyl]-1H-benzimidazole-6-carboxylic acid] | 210 nM | 66% |  |
| O=C(O)c1ccc2nc(CN3CCC(c4cccc(OCc5ccc(Cl)cc5F)n4)CC3)n(C[C@H]3CCOC3)c2c1 [Compound 121B, 2-[(4-{6-[(4-chloro-2-fluorobenzyl)oxy]pyridin-2-yl}piperidin-1-yl)methyl]-1-[(3R)-tetrahydrofuran-3-ylmethyl]-1H-benzimidazole-6-carboxylic acid] | > 20000 nM |  |  |
| COCCn1c(CN2CCC(c3cccc(OCc4ccc(Cl)cc4F)n3)CC2)nc2ccc(C(=O)O)cc21 [Compound 176B, 2-[(4-{6-[(4-chloro-2-fluorobenzyl)oxy]pyridin-2-yl}piperidin-1-yl)methyl]-1-(2-methoxyethyl)-1H-benzimidazole-6-carboxylic acid] | 2400 nM | 87% |  |
| COC1(Cn2c(CN3CCC(c4cccc(OCc5ccc(Cl)cc5F)n4)CC3)nc3ccc(C(=O)O)cc32)CCC1 [Compound 177B, 2-[(4-{6-[(4-chloro-2-fluorobenzyl)oxy]pyridin-2-yl}piperidin-1-yl)methyl]-1-[(1-methoxycyclobutyl)methyl]-1H-benzimidazole-6-carboxylic acid] | 880 nM |  |  |
| COCCn1c(CN2CCC(c3ccc(F)c(OCc4ccc(Cl)cc4F)n3)CC2)nc2ccc(C(=O)O)cc21 [Compound 178B, 2-[(4-{6-[(4-chloro-2-fluorobenzyl)oxy]-5-fluoropyridin-2-yl}piperidin-1-yl)methyl]-1-(2-methoxyethyl)-1H-benzimidazole-6-carboxylic acid] | 4500 nM | 48% |  |
| COCCn1c(CN2CCN(c3nc(OCc4ccc(Cl)cc4F)ccc3F)CC2)nc2ccc(C(=O)O)cc21 [Compound 179B, 2-[(4-{6-[(4-chloro-2-fluorobenzyl)oxy]-3-fluoropyridin-2-yl}piperazin-1-yl)methyl]-1-(2-methoxyethyl)-1H-benzimidazole-6-carboxylic acid] | 1600 nM | 83% |  |
| Cn1cncc1Cn1c(CN2CCC(c3cccc(OCc4ccc(F)cc4F)n3)CC2)nc2ccc(C(=O)O)cc21 [Compound 186B, 2-[(4-{6-[(2,4-difluorobenzyl)oxy]pyridin-2-yl}piperidin-1-yl)methyl]-1-[(1-methyl-1H-imidazol-5-yl)methyl]-1H-benzimidazole-6-carboxylic acid] | 1700 nM | 82% |  |
| O=C(O)c1cnc2nc(CN3CCC(c4cccc(OCc5ccc(Cl)cc5F)n4)CC3)n(CC(F)(F)F)c2c1 [Compound 212B, 2-[(4-{6-[(4-chloro-2-fluorobenzyl)oxy]pyridin-2-yl}piperidin-1-yl)methyl]-1-(2,2,2-trifluoroethyl)-1H-imidazo[4,5-b]pyridine-6-carboxylic acid] | 190 nM | 71% |  |

Further lines, results first:

| EC50 | Emax [1] | Emax (relative to saturating full agonist GLP-1 (1 μM), read-out: Assay 1 Emax) | Compound |
| --- | --- | --- | --- |
| 870 nM |  |  | COCCn1c(CN2CCN(c3ccc(F)c(OCc4ccc(Cl)cc4F)n3)CC2C)nc2ccc(C(=O)O)cc21 (stereo in doubt) [Compound 174B, 2-{[(2S)-4-{6-[(4-chloro-2-fluorobenzyl)oxy]-5-fluoropyridin-2-yl}-2-methylpiperazin-1-yl]methyl}-1-(2-methoxyethyl)-1H-benzimidazole-6-carboxylic acid] |
| > 11000 nM | 84% |  | N#Cc1ccc(COc2cccc(C3CCN(Cc4nc5ccc(C(=O)O)cc5n4C[C@@H]4CCO4)CC3)n2)cc1 [Compound 130B, 2-[(4-{6-[(4-cyanobenzyl)oxy]pyridin-2-yl}piperidin-1-yl)methyl]-1-[(2S)-oxetan-2-ylmethyl]-1H-benzimidazole-6-carboxylic acid] |
| 210 nM | 79% |  | C[C@H]1CN(c2cccc(OCc3ccc(Cl)cc3F)n2)CCN1Cc1nc2ccc(C(=O)O)cc2n1Cc1cnco1 [Compound 147B, 2-{[(2S)-4-{6-[(4-chloro-2-fluorobenzyl)oxy]pyridin-2-yl}-2-methylpiperazin-1-yl]methyl}-1-(1,3-oxazol-5-ylmethyl)-1H-benzimidazole-6-carboxylic acid] |
| 340 nM | 74% |  | C[C@H]1CN(c2cccc(OCc3ccc(Cl)cc3F)n2)CCN1Cc1nc2ccc(C(=O)O)cc2n1Cc1ncco1 [Compound 148B, 2-{[(2S)-4-{6-[(4-chloro-2-fluorobenzyl)oxy]pyridin-2-yl}-2-methylpiperazin-1-yl]methyl}-1-(1,3-oxazol-2-ylmethyl)-1H-benzimidazole-6-carboxylic acid] |
| 370 nM | 75% |  | CCn1cncc1Cn1c(CN2CCN(c3cccc(OCc4ccc(C#N)cc4F)n3)CC2)nc2ccc(C(=O)O)cc21 [Compound 152B, 2-[(4-{6-[(4-cyano-2-fluorobenzyl)oxy]pyridin-2-yl}piperazin-1-yl)methyl]-1-[(1-ethyl-1H-imidazol-5-yl)methyl]-1H-benzimidazole-6-carboxylic acid] |
| 1200 nM | 78% |  | COCCn1c(CN2CCC(c3cccc(OCc4ccc(C#N)cc4)n3)CC2)nc2ccc(C(=O)O)c(F)c21 [Compound 169B, 2-[(4-{6-[(4-cyanobenzyl)oxy]pyridin-2-yl}piperidin-1-yl)methyl]-7-fluoro-1-(2-methoxyethyl)-1H-benzimidazole-6-carboxylic acid] |
| 200 nM | 79% |  | COCCn1c(CN2CCN(c3cccc(OCc4ccc(C#N)cc4)n3)CC2)nc2ccc(C(=O)O)cc21 [Compound 171B, 2-[(4-{6-[(4-cyanobenzyl)oxy]pyridin-2-yl}piperazin-1-yl)methyl]-1-(2-methoxyethyl)-1H-benzimidazole-6-carboxylic acid] |
| 2900 nM |  |  | COCCn1c(CN2CCN(c3cccc(OCc4ccc(C#N)cc4)n3)C[C@@H]2C)nc2ccc(C(=O)O)cc21 [Compound 172B, 2-{[(2S)-4-{6-[(4-cyanobenzyl)oxy]pyridin-2-yl}-2-methylpiperazin-1-yl]methyl}-1-(2-methoxyethyl)-1H-benzimidazole-6-carboxylic acid] |
| 2700 nM | 85% |  | COCCn1c(CN2CCN(c3cccc(OCc4ccc(C#N)cc4F)n3)C[C@@H]2C)nc2ccc(C(=O)O)cc21 [Compound 173B, 2-{[(2S)-4-{6-[(4-cyano-2-fluorobenzyl)oxy]pyridin-2-yl}-2-methylpiperazin-1-yl]methyl}-1-(2-methoxyethyl)-1H-benzimidazole-6-carboxylic acid] |
| > 17000 nM | 100% |  | COCCn1c(CN2CCN(c3nc(OCc4ccc(Cl)cc4F)ccc3F)C[C@@H]2C)nc2ccc(C(=O)O)cc21 [Compound 180B, 2-{[(2S)-4-{6-[(4-chloro-2-fluorobenzyl)oxy]-3-fluoropyridin-2-yl}-2-methylpiperazin-1-yl]methyl}-1-(2-methoxyethyl)-1H-benzimidazole-6-carboxylic acid] |
| 170 nM | 68% |  | COCCn1c(CN2CCC(c3cccc(OCc4ccccc4)n3)CC2)nc2ccc(C(=O)O)cc21 [Compound 181B, 2-({4-[6-(benzyloxy)pyridin-2-yl]piperidin-1-yl}methyl)-1-(2-methoxyethyl)-1H-benzimidazole-6-carboxylic acid] |
| 1800 nM | 93% |  | COCCn1c(CN2CCN(c3cccc(OCc4ccc(Cl)cc4F)n3)C(C)(C)C2)nc2ccc(C(=O)O)cc21 [Compound 182B, 2-[(4-{6-[(4-chloro-2-fluorobenzyl)oxy]pyridin-2-yl}-3,3-dimethylpiperazin-1-yl)methyl]-1-(2-methoxyethyl)-1H-benzimidazole-6-carboxylic acid] |
